The values below come from patent publication US11286268B1, “EIF4E-inhibiting compounds and methods” (EFFECTOR THERAPEUTICS, INC., priority 2019, dated 2022).

Where two headings read alike, the source gives them in different places.

This experiment addresses recombinant eIF4E (Homo sapiens (Human), UniProt P06730). The experiment in a line: Fluorescence polarization competition assay for eIF4E binding potency. Summed up: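 Competition of test compound against 20 nM EDA-m^7GDP-ATTO-550 for 75 nM recombinant eIF4E, pre-incubated 5 min, in 20 mM Tris pH 7.5, 100 mM NaCl, 1 mM DTT, 0.02% Tween-20, 1% DMSO. Equilibrated 30 min at room temperature, dark; fluorescence polarization read. IC50 from 8-point, 3-fold dilution series.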

The mark [1] stands for this setting: fluorescence polarization competition, 75 nM recombinant eIF4E, 20 nM EDA-m7GDP-ATTO-550, IC50 class, read-out: elF4E FP.
Setting [2] is: inhibition of eIF4E/EDA-m7GDP-ATTO-550 binding by 50%, Table 4B calculated values, read-out: IC50.
[3] abbreviates: inhibition of eIF4E/EDA-m7GDP-ATTO-550 binding, calculated IC50 values, Table 4B, read-out: IC50.

Sequence of recombinant eIF4E (P06730 whole entry): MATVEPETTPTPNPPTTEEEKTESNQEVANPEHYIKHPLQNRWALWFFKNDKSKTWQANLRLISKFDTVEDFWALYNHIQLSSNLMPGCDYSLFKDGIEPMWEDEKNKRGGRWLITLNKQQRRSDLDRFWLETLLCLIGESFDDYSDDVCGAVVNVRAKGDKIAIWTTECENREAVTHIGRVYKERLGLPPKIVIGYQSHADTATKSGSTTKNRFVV

As for `Cc1cc(-c2cc(Cl)ccc2OCCn2c(C)nc3cnc(-c4cc(F)ccc4C)c(C#N)c3c2=O)c2scc(C(=O)O)c2n1` [compound 1052], the IC50 was < 50 nM under setting [1] and 5.46 nM under setting [2].

Turning to `Cc1cc(-c2cc(Cl)ccc2OCCn2c(C)nc3cc(C(F)(F)F)c(CC4CCN(C)CC4=O)c(C#N)c3c2=O)c2scc(C(=O)O)c2n1` (stereo not shown) [compound 1908], the IC50 under setting [3] is 5.17 nM.

In the case of `O=C(O)c1cccc(-c2cc(Cl)ccc2OCCn2ccc3cccnc3c2=O)c1` [compound 7], the IC50 reads like this: under setting [1], > 1000 nM; under setting [2], 12000 nM.

For `Cc1cc(-c2cc(Cl)ccc2OCCn2c(C)nc3cc(C(F)F)c(C)c(C#N)c3c2=O)c2scc(C(=O)O)c2n1` [compound 627], the IC50 is < 50 nM under setting [1] and 6.72 nM under setting [2].

Turning to `Cc1nc2cnc(N3CCCC4(CCN4CC(F)F)C3)c(C#N)c2c(=O)n1CCOc1ccc(Cl)cc1-c1ccnc2c(C(=O)O)csc12` (stereo not shown) [compound 1649], the IC50 under setting [3] was 18.3 nM.

In the case of `N#Cc1cc(C#N)c2c(=O)n(CCOc3ccc(Cl)cc3-c3cccc(C(=O)O)c3)c(CF)nc2c1` [compound 231], the IC50 was < 50 nM under setting [1] and 12.9 nM under setting [2].

With `Cc1nc2cnc(N(C)[C@@H]3CC[C@H](N(C)CC(F)F)C3)c(C#N)c2c(=O)n1CC#Cc1ccc(Cl)cc1-c1ccnc2c(C(=O)O)csc12` [compound 1897], the IC50 under setting [3] was 13.1 nM.

For `O=C(O)c1cccc(-c2cc(Cl)ccc2OCCn2c(C(F)F)nc3cnc(Cl)cc3c2=O)c1` [compound 2008], the IC50 under setting [3] is 96.1 nM.

With `Cc1nc2cnc(N(C)C3CCCN(CC(F)F)C3)c(C#N)c2c(=O)n1CC#Cc1ccc(Cl)cc1-c1ccnc2c(C(=O)O)csc12` (stereo not shown) [compound 1540], the IC50 under setting [3] is 19.5 nM.

On to `Cc1nc2cc(C(F)(F)F)cc(S(C)(=O)=O)c2c(=O)n1CCOc1ccc(Cl)cc1-c1ccnc2c(C(=O)O)csc12` [compound 223], for which the IC50 is, setting by setting: under setting [1], 50 to 1000 nM; under setting [2], 950 nM.

For `Cc1nc2cc(F)c(C#N)c(C#N)c2c(=O)n1CCOc1ccc(Cl)cc1-c1ccnc2c(C(=O)O)csc12` [compound 276], the IC50 runs as follows: under setting [1], < 50 nM; under setting [2], 22.8 nM.

In the case of `Cc1nc2cnc(N(C)C3CCN(CC(F)(F)F)CC3)c(C#N)c2c(=O)n1CC#Cc1ccc(Cl)cc1-c1ccnc2c(C(=O)NS(=O)(=O)CF)csc12` [compound 1669], the IC50 under setting [3] is 9.17 nM.

Turning to `Cc1nc2cnc(N(C)C3CCN(C4(C)CC4)CC3)c(C#N)c2c(=O)n1CC#Cc1ccc(Cl)cc1-c1ccnc2c(C(=O)O)csc12` [compound 1524], the IC50 under setting [3] is 12.5 nM.

For `Cc1nc2cnc(C#N)cc2c(=O)n1CCOc1ccc(Cl)cc1-c1ccnc(C(=O)O)c1` [compound 134], the IC50 was 50 to 1000 nM under setting [1] and 116 nM under setting [2].

As for `Cc1cc(-c2cc(Cl)ccc2OCCn2c(C)nc3c(C)nc(-c4ccccc4)c(C#N)c3c2=O)c2scc(C(=O)O)c2n1` [compound 737], the IC50 by setting is: under setting [1], < 50 nM; under setting [2], 12.3 nM.

On to `Cc1cc(-c2cc(Cl)ccc2OCCn2c(C)nc3cc(C(F)(F)F)cc(C#N)c3c2=O)c2scc(C(=O)NCC(=O)O)c2n1` [compound 398], for which the IC50 by setting is: under setting [1], 50 to 1000 nM; under setting [2], 149 nM.

As for `Cc1nc2ccccc2c(=O)n1CCOc1ccc(Cl)cc1-c1cccc(C(=O)O)c1` [compound 72], the IC50 was > 1000 nM under setting [1] and 3100 nM under setting [2].

As to `Cc1nc2cc(C#N)c(Cl)c(C#N)c2c(=O)n1CCOc1ccc(Cl)cc1-c1ccnc2c(C(=O)O)csc12` [compound 239], the IC50 is, setting by setting: under setting [1], < 50 nM; under setting [2], 28.6 nM.

With `Cc1nc2cc(C(F)(F)F)cc(C#N)c2c(=O)n1CCOc1ccc(Cl)cc1-c1cncc2c(C(=O)O)csc12` [compound 319], the IC50 under setting [1] was 50 to 1000 nM and the IC50 under setting [2] is 53.5 nM.

Consider `N#Cc1cc2c(=O)n(CCOc3ccc(Cl)cc3-c3ccc(C(=O)O)s3)cnc2cn1` [compound 53], for which the IC50 was 50 to 1000 nM under setting [1] and 931 nM under setting [2].

As to `O=C(O)c1cccc(-c2cc(Cl)ccc2OCCn2ccc3ccccc3c2=O)c1` [compound 9], the IC50 reads like this: under setting [1], > 1000 nM; under setting [2], > 30000 nM.

Turning to `Cc1cc(-c2cc(Cl)ccc2OCCn2c(C)nc3ccc(N4CCN(C)CC4)nc3c2=O)c2scc(C(=O)O)c2n1` [compound 678], the IC50 is, setting by setting: under setting [1], 50 to 1000 nM; under setting [2], 53.8 nM.

In the case of `Cc1cc(-c2cc(Cl)ccc2OCCn2c(C)nc3cc(Cl)c(N(C)C(C)(C)C)c(C#N)c3c2=O)c2scc(C(=O)O)c2n1` [compound 955], the IC50 was < 50 nM under setting [1] and 10.2 nM under setting [2].

Consider `Cc1sc2c(-c3cc(Cl)ccc3OCCn3c(C)nc4c(C)nc(N5CCN(C)CC5)c(C#N)c4c3=O)ccnc2c1C(=O)O` [compound 1297], for which the IC50 under setting [3] was 37.8 nM.

Regarding `Cc1cc(-c2cc(Cl)ccc2OCCn2c(C)nc3c(F)cc(C(F)F)c(C#N)c3c2=O)c2scc(S(=O)(=O)O)c2n1` [compound 488], the IC50 under setting [1] is < 50 nM.

With `Cc1nc2ccc(S(=O)(=O)N3CCCC3)c(C#N)c2c(=O)n1CCOc1ccc(Cl)cc1-c1ccnc2c(C(=O)O)csc12` [compound 249], the IC50 was < 50 nM under setting [1] and 19.8 nM under setting [2].

Consider `Cc1nc2cnc(CCCN(C)CCF)c(C#N)c2c(=O)n1CCOc1ccc(Cl)cc1-c1ccnc2c(C(=O)O)csc12` [compound 1345], for which, under setting [3], the IC50 is 34.5 nM.

As for `Cc1cc(-c2cc(Cl)ccc2OCCn2c(C)nc3cnc(-c4ccc(C)c(O)c4)c(C#N)c3c2=O)c2scc(C(=O)O)c2n1` [compound 1227], the IC50 was < 50 nM under setting [1] and 12.8 nM under setting [3].

With `Cc1cc(-c2cc(Cl)ccc2OCCn2c(C)nc3cc4c(c(C#N)c3c2=O)CCC4)c2scc(C(=O)O)c2n1` [compound 748], the IC50 was < 50 nM under setting [1] and 16.3 nM under setting [2].

Consider `Cc1nc2cnc(N(C)C3[C@@H]4C[C@H]3CN(CC(C)(F)F)C4)c(C#N)c2c(=O)n1CC#Cc1ccc(Cl)cc1-c1ccnc2c(C(=O)O)csc12` (stereo partly shown) [compound 1691], for which the IC50 under setting [3] is 17.9 nM.

Consider `Cc1nc2cnc(N3CCN(C(C)(C)CC#N)CC3)c(C#N)c2c(=O)n1CCOc1ccc(Cl)cc1-c1ccnc2c(C(=O)O)csc12` [compound 1343], for which, under setting [3], the IC50 is 40.6 nM.

Turning to `Cc1cc(-c2cc(Cl)ccc2OCCn2c(C)nc3cc(C(F)(F)F)c(C(=O)N(C)C)nc3c2=O)c2scc(C(=O)O)c2n1` [compound 781], the IC50 reads like this: under setting [1], < 50 nM; under setting [2], 3.12 nM.

As to `Cc1cc(-c2cc(Cl)ccc2OCCn2c(C)nc3cc(C(F)(F)F)c(CN4C[C@@H](C)O[C@@H](C)C4)c(C#N)c3c2=O)c2scc(C(=O)O)c2n1` [compound 642], the IC50 is, setting by setting: under setting [1], < 50 nM; under setting [2], 3.63 nM.

`Cc1cc(-c2cc(Cl)ccc2OCCn2c(C)nc3cc(C(F)(F)F)c(OCC(F)F)c(C#N)c3c2=O)c2scc(C(=O)O)c2n1` [compound 1197]: the IC50 was < 50 nM under setting [1] and 5.93 nM under setting [3].

For the compound `Cc1cc(-c2cc(Cl)ccc2OCCn2c(C)nc3cc(Cl)c(N4CC(C)(C)C4)c(C#N)c3c2=O)c2scc(C(=O)O)c2n1` [compound 691], the IC50 by setting is: under setting [1], < 50 nM; under setting [2], 7.17 nM.

Take `Cc1ccccc1S(=O)(=O)NC(=O)c1csc2c(-c3cc(Cl)ccc3C#CCn3c(C)nc4cnc(N(C)C5CCN(CC(F)(F)F)CC5)c(C#N)c4c3=O)ccnc12` [compound 1549]: the IC50 under setting [3] is 26.2 nM.

Turning to `Cc1nc2cnc(N3CCC4(CC3)CN(CC(C)(F)F)C4)c(C#N)c2c(=O)n1CC#Cc1ccc(Cl)cc1-c1ccnc2c(C(=O)O)csc12` [compound 1137], the IC50 under setting [1] is < 50 nM and the IC50 under setting [2] was 17.4 nM.

For `Cc1nc2cc(C(F)(F)F)cc(C#N)c2c(=O)n1CCOc1ccc(Cl)cc1-c1ccnc(C(=O)O)c1` [compound 60], the IC50 under setting [1] was < 50 nM.

For `N#Cc1cc2c(=O)n(CCOc3ccc(Cl)cc3-c3cc(C(=O)O)c4cc[nH]c4n3)cnc2cn1` [compound 117], the IC50 is > 1000 nM under setting [1] and > 3000 nM under setting [2].

For the compound `Cc1nc2cc(C(F)(F)F)c(CN3[C@@H]4CC[C@H]3COC4)c(C#N)c2c(=O)n1CCOc1ccc(Cl)cc1-c1ccnc2c(C(=O)O)csc12` [compound 523], the IC50 is, setting by setting: under setting [1], < 50 nM; under setting [2], 23.9 nM.

Regarding `Cc1cc(S(=O)(=O)NC(=O)c2csc3c(-c4cc(Cl)ccc4C#CCn4c(C)nc5cnc(N(C)C6CCN(CC(C)(F)F)CC6)c(C#N)c5c4=O)ccnc23)ccn1` [compound 1682], the IC50 under setting [3] was 15.1 nM.

With `Cc1cc(-c2cc(Cl)ccc2OCCn2c(C)nc3cc(C(F)(F)F)c(N4CCN(C)CC4)c(C#N)c3c2=O)cc(C(=O)O)n1` [compound 1222], the IC50 by setting is: under setting [1], < 50 nM; under setting [3], 3.02 nM.

As to `Cc1cc(-c2cc(Cl)ccc2OCCn2c(C)nc3cc(C(F)(F)F)c(C4=CCOCC4)c(C#N)c3c2=O)c2scc(C(=O)O)c2n1` [compound 429], the IC50 under setting [1] was < 50 nM.

Regarding `Cc1nc2cnc(Nc3cc(F)cc(F)c3)cc2c(=O)n1CCOc1ccc(Cl)cc1-c1cccc(C(=O)O)c1` [compound 2002], the IC50 under setting [3] is 259 nM.

As to `Cc1c(O)c2cc(C(F)(F)F)cc(C#N)c2c(=O)n1CCOc1ccc(Cl)cc1-c1ccnc2c(C(=O)O)csc12` [compound 310], the IC50 was 50 to 1000 nM under setting [1] and 97.7 nM under setting [2].

Turning to `Cc1nc2cc(C(F)F)c(CN(C)C)c(C#N)c2c(=O)n1CC#Cc1ccc(Cl)cc1-c1ccnc2c(C(=O)O)csc12` [compound 622], the IC50 is, setting by setting: under setting [1], < 50 nM; under setting [2], 43.8 nM.

Regarding `Cc1cc(-c2cc(Cl)ccc2OCCn2c(C)nc3cc(OC(F)F)cc(C#N)c3c2=O)c2scc(C(=O)O)c2n1` [compound 579], the IC50 is < 50 nM under setting [1] and 30.2 nM under setting [2].

On to `Cc1cnc2c(C(=O)O)csc2c1-c1cc(Cl)ccc1OCCn1c(C)nc2cc(C(F)(F)F)cc(C#N)c2c1=O` [compound 495], for which the IC50 is 50 to 1000 nM under setting [1] and 237 nM under setting [2].
